# Test results taken from patent US9546401B2, “Assays and methods for selecting a treatment regimen for a subject with depression” (The General Hospital Corporation, priority 2011, dated 2017).
# Like-named read-outs stand apart in the source and are kept apart here.
# Tests used:
# [1] = test system: MDD patients carrying the indicated SNP
# From the text: The term “prevalence” as used in FIG. 8B refers to the total percentage of MDD patients who carry the SNP as indicated in this particular study.
# [2] = test system: SSRI-resistant outpatients with major depressive disorder (MDD); details: for CGI-S Mean score reduction / HDRS-17 % Remission / HDRS-17 % Response / HDRS-17 Mean score reduction / QIDS-SR % Remission / QIDS-SR % Response / QIDS-SR Mean score reduction: 15 mg/day adjunct to an SSRI
# From the text: Using the sequential parallel design […] For those randomly assigned to the placebo/placebo sequence, both responders and non-responders to placebo during the first phase (n=25) remain on placebo during the second phase. […] Data from the previous double-blind, placebo-controlled study (Trial 1) can be pooled into the instant study (Trial 2) to provide a more accurate estimate of the placebo effect size, with a weighted average from the two Phases 1 (one from Trial 1 and one from Trial 2) and two Phases 2 (one from Trial 1 and one from Trial 2).
# All patients are asked to take one tablet of blinded study medication in the morning, in addition to their stable dose of ongoing SSRI treatment. […] Therefore, for patients randomly assigned to the placebo/placebo sequence, the tablets of study medication are placebo during both phases of the study.
# The primary efficacy measure can include the change in 17-item Hamilton Rating Scale for Depression (HAM-D-17) score. […] A remission is, for example, defined as a HAM-D-17 score less than 8 at endpoint. Secondary measures of efficacy can include change in CGI-severity, with “clinical response defined” as CGI-S of 1 or 2 at endpoint. Patients with a CGI-I score greater than 5 at any post baseline visit or a 50 percent or greater worsening of depressive symptoms from baseline to that visit are discontinued from the study. Subjects are also discontinued from the study with any emergence of suicidality, homicidality, mania, or psychosis. Additional exemplary instruments that can be administered according to the study schedule include the following: • (1) Structured Clinical Interview for DSM-IV: The SCID-I/P, administered by the clinician, proceeds by modules to diagnose the different Axis I disorders. Questions are asked exactly as written, and each is based on the individual criteria from DSM-IV. Answers are generally rated on a scale of 1-3 (1=doubtful, 2=probable, 3=definite), and, based on the number of positive answers, a diagnosis is determined by a clinician. While the entire SCID-I/P is administered at screen, the mood module is administered at each follow up visit. • (2) The MGH Antidepressant Treatment History Questionnaire (MGH-ATR): The MGH-ATR provides specific criteria for the adequate dose and adequate length of a trial for it to be considered a failure, thus allowing clinicians to systematically collect data aimed at assessing the degree of treatment-resistance of the current major depressive episode. • (3) The 28-item Hamilton Depression Scale (HAM-D-28): This version allows scoring of the HAM-D-17, 21-, 25-, and 28-item scales. This instrument is completed by the clinician by using a structured interview and defined anchor points, and aims to quantify the degree of depression over the past 7 days. The HAM-D is the most widely studied instrument for depression, and its reliability and validity are high. • (4) Clinical Global Impressions—Severity and Improvement (CGI-S, CGI-I): These two instruments are scored 1-7 by the clinician based on assessment of the patient's clinical status. They measure, based on history and scores on other instruments: a) Depressive severity (CGI-S) and b) Clinical Improvement (CGI-I). […] Safety Measurements
# Data are entered and error-checked at each clinical site involved in the study. Study staff and subjects may have the option to enter self-evaluations into the system directly using DatStat Illume™. The process of data entry is supervised by the DCRP staff. Once the data set is entered and checked, analyses are conducted. Both a completer analysis of all patients finishing the trial and an intent-to-treat analysis examining all patients enrolled into the trial are used to define the severity of depression at endpoint. Examination of both study completers and all patients randomized can provide the broadest assessment of the effects of treatment in trials of such kind.
# [3] = CACNA1C rs1006737 (AG), genotype code 13
# [4] = COMT (Val 158 Met) rs4680 (GG), genotype code 33
# [5] = COMT (Val 158 rs4633 (CC), genotype code 22)
# [6] = DAT (SLC6A3) rs250682 (CG), genotype code 33
# [7] = DNMT3B rs1883729 (AG), genotype code 11/13
# [8] = DNMT3B rs1883729 (AG), genotype code 11
# [9] = DNMT3B rs1883729 (AG), genotype code 13
# [10] = DRD2 (H313H) rs6275 (TT), genotype code 11
# [11] = DRD2 (SLC26A9) rs11240594 (AG), genotype code 33
# [12] = DRD2 (Taq1Br) rs1079596 (TC), genotype code 42/44
# [13] = DRD2 (Taq1Br) rs1079596 (TC), genotype code 42
# [14] = FDRC rs2277820 (TC), genotype code 22
# [15] = GCH1 rs8007267 (TC), genotype code 42
# [16] = GCHFR rs7163862 (TA), genotype code 41
# [17] = GCPH or FOLH1 rs202676 (AG), genotype code 31
# [18] = MTHFD 1 G1958A (R653Q) rs2236225 (AG), genotype code 33
# [19] = MTHFR G1793A rs2274976 (GA), genotype code 42
# [20] = PCYT1A rs7639752 (AA), genotype code 11
# [21] = RCF1 (in SLC19A1) rs1051266 (AA), genotype code 44
# [22] = RCF1 A > G rs2297291 (AA), genotype code 11
# [23] = RCF2 (in SLC19A1) rs12659 (TT), genotype code 11
# [24] = SSRI + 15 mg/day versus SSRI + placebo, after 30 days
structure (smiles),measurement,setting,value
"CN1c2c(nc(N)[nH]c2=O)NC[C@@H]1CNc1ccc(C(=O)N[C@@H](CCC(=O)O)C(=O)O)cc1 [6(S)-5-MTHF, 6(S)-5-methyltetrahydrofolate]","PHASE I EFFFCT, change in HAMD-28",[1]; [3],−8.006
same,"PHASE II EFFFCT, change in HAMD-28",[1]; [3],−2.467
same,"POOLED PHASES EFFFCT, change in HAMD-28",[1]; [3],−4.633
same,"PHASE II EFFFCT, change in HAMD-28",[1]; [4],−10.170
same,"PHASE I EFFFCT, change in HAMD-28","[1]; COMT (Val 158 Met) rs4680 (GG), genotype code 33, folate-containing compound + SSRI",−12.070
same,"POOLED PHASES EFFFCT, change in HAMD-28",[1]; [4],−10.880
same,"PHASE I EFFFCT, change in HAMD-28",[1]; [5],−10.070
same,"PHASE II EFFFCT, change in HAMD-28",[1]; [5],−10.170
same,"POOLED PHASES EFFFCT, change in HAMD-28",[1]; [5],−9.240
same,"PHASE I EFFFCT, change in HAMD-28",[1]; [6],−5.722
same,"PHASE II EFFFCT, change in HAMD-28",[1]; [6],−5.768
same,"POOLED PHASES EFFFCT, change in HAMD-28",[1]; [6],−4.996
same,"PHASE I EFFFCT, change in HAMD-28",[1]; [7],−6.340
same,"PHASE II EFFFCT, change in HAMD-28",[1]; [7],−4.940
same,"POOLED PHASES EFFFCT, change in HAMD-28",[1]; [7],−5.360
same,"PHASE I EFFFCT, change in HAMD-28",[1]; [8],−2.318
same,"PHASE II EFFFCT, change in HAMD-28",[1]; [8],−5.267
same,"POOLED PHASES EFFFCT, change in HAMD-28",[1]; [8],−4.811
same,"PHASE I EFFFCT, change in HAMD-28",[1]; [9],−8.097
same,"PHASE II EFFFCT, change in HAMD-28",[1]; [9],−4.667
same,"POOLED PHASES EFFFCT, change in HAMD-28",[1]; [9],−6.748
same,"PHASE I EFFFCT, change in HAMD-28",[1]; [10],−16.560
same,"PHASE II EFFFCT, change in HAMD-28",[1]; [10],1.667
same,"POOLED PHASES EFFFCT, change in HAMD-28",[1]; [10],−7.627
same,"PHASE I EFFFCT, change in HAMD-28",[1]; [11],−5.018
same,"PHASE II EFFFCT, change in HAMD-28",[1]; [11],−3.424
same,"POOLED PHASES EFFFCT, change in HAMD-28",[1]; [11],−3.758
same,"PHASE I EFFFCT, change in HAMD-28",[1]; [12],−10.640
same,"PHASE II EFFFCT, change in HAMD-28",[1]; [12],−3.893
same,"POOLED PHASES EFFFCT, change in HAMD-28",[1]; [12],−6.903
same,"PHASE I EFFFCT, change in HAMD-28",[1]; [13],−10.640
same,"PHASE II EFFFCT, change in HAMD-28",[1]; [13],−3.893
same,"POOLED PHASES EFFFCT, change in HAMD-28",[1]; [13],−6.903
same,"PHASE I EFFFCT, change in HAMD-28",[1]; [14],−2.634
same,"PHASE II EFFFCT, change in HAMD-28",[1]; [14],−6.232
same,"POOLED PHASES EFFFCT, change in HAMD-28",[1]; [14],−4.027
same,"PHASE I EFFFCT, change in HAMD-28",[1]; [15],−7.729
same,"PHASE II EFFFCT, change in HAMD-28",[1]; [15],−5.417
same,"POOLED PHASES EFFFCT, change in HAMD-28",[1]; [15],−6.654
same,"PHASE I EFFFCT, change in HAMD-28",[1]; [16],−6.280
same,"PHASE II EFFFCT, change in HAMD-28",[1]; [16],−4.542
same,"POOLED PHASES EFFFCT, change in HAMD-28",[1]; [16],−4.863
same,"PHASE I EFFFCT, change in HAMD-28",[1]; [17],−7.314
same,"PHASE II EFFFCT, change in HAMD-28",[1]; [17],−3.300
same,"POOLED PHASES EFFFCT, change in HAMD-28",[1]; [17],−5.402
same,"PHASE I EFFFCT, change in HAMD-28",[1]; [18],−2.742
same,"PHASE II EFFFCT, change in HAMD-28",[1]; [18],−3.762
same,"POOLED PHASES EFFFCT, change in HAMD-28",[1]; [18],−3.496
same,"PHASE I EFFFCT, change in HAMD-28",[1]; [19],−5.333
same,"PHASE II EFFFCT, change in HAMD-28",[1]; [19],2.833
same,"POOLED PHASES EFFFCT, change in HAMD-28",[1]; [19],−5.551
same,"PHASE I EFFFCT, change in HAMD-28",[1]; [20],−10.400
same,"PHASE II EFFFCT, change in HAMD-28",[1]; [20],−3.900
same,"POOLED PHASES EFFFCT, change in HAMD-28",[1]; [20],−6.716
same,"PHASE I EFFFCT, change in HAMD-28",[1]; [21],−10.000
same,"PHASE II EFFFCT, change in HAMD-28",[1]; [21],−2.750
same,"POOLED PHASES EFFFCT, change in HAMD-28",[1]; [21],−7.673
same,"PHASE I EFFFCT, change in HAMD-28",[1]; [22],−8.778
same,"PHASE II EFFFCT, change in HAMD-28",[1]; [22],−1.400
same,"POOLED PHASES EFFFCT, change in HAMD-28",[1]; [22],−5.458
same,"PHASE I EFFFCT, change in HAMD-28",[1]; [23],−7.571
same,"PHASE II EFFFCT, change in HAMD-28",[1]; [23],−1.400
same,"POOLED PHASES EFFFCT, change in HAMD-28",[1]; [23],−4.860
same,CGI-S Mean score reduction,[2]; Phase 1,−1.3
same,HDRS-17 % Remission,[2]; Phase 1,15.7%
same,HDRS-17 % Response,[2]; Phase 1,36.8%
same,HDRS-17 Mean score reduction,[2]; Phase 1,−7.5
same,QIDS-SR % Remission,[2]; Phase 1,21.0%
same,QIDS-SR % Response,[2]; Phase 1,36.8%
same,QIDS-SR Mean score reduction,[2]; Phase 1,−8.1
same,CGI-S Mean score reduction,[2]; Phase 2,−0.5
same,HDRS-17 % Remission,[2]; Phase 2,11.1%
same,HDRS-17 % Response,[2]; Phase 2,27.7%
same,HDRS-17 Mean score reduction,[2]; Phase 2,−3.8
same,QIDS-SR % Remission,[2]; Phase 2,5.5%
same,QIDS-SR % Response,[2]; Phase 2,11.1%
same,QIDS-SR Mean score reduction,[2]; Phase 2,−1.3
same,CGI-S Mean score reduction,[2]; Pooled Phases 1 and 2,−0.92
same,HDRS-17 % Remission,[2]; Pooled Phases 1 and 2,13.4%
same,HDRS-17 % Response,[2]; Pooled Phases 1 and 2,32.3%
same,HDRS-17 Mean score reduction,[2]; Pooled Phases 1 and 2,−5.58
same,QIDS-SR % Remission,[2]; Pooled Phases 1 and 2,13.3%
same,QIDS-SR % Response,[2]; Pooled Phases 1 and 2,23.9%
same,QIDS-SR Mean score reduction,[2]; Pooled Phases 1 and 2,−4.7
same,"degree of improvement (HAM-D-17, QIDS-SR, CGI-S)",[2]; [24],"greater degree of reduction in the scores of HAM-D-17, QIDS-SR and CGI-S"
same,percentage of remitters (HAM-D-17 or QIDS-SR),[2]; [24],no significant difference
same,percentage of responders (50% or greater reduction in HAM-D-17),[2]; [24],response rate is higher for the 6(S)-5-MTHF group than the placebo group
